According to patent US20110021471A1, “REDUCING Abeta42 LEVELS AND Abeta AGGREGATION” (priority 2007, published 2011):

What was measured:
Aβ(1-42) = Aβ(1-42) (Homo sapiens, UniProt P05067); assay: Fluorescence titration and saturation binding of Aβ(1-42) with X-34
Description: Fluorescence titration and saturation binding of Aβ(1-42) with X-34. Incremental increases in fluorescence (ΔF) when Aβ(1-42) was included at the indicated total concentrations of X-34 were fitted to eq. 1.
(§1) Finally, X-34 was tested for its ability to modulate Aβ42 amounts in an APP transgenic mouse (Tg2576).

Tg2576 mice = assay: Acute oral dosing of Tg2576 mice, brain soluble Aβ after 4 hours; format: in vivo, mouse
Description: FIG. 2. Aβ modulating agents can inhibit Aβ aggregation, and agents that bind Aβ amyloid can modulate Aβ42 production. […] (C) Aβ42 modulating agents inhibit naturally secreted oligomer formation. 7PA2 cells were treated with fenofibrate, FT-1, or FT-9 at 50 μM and oligomers assessed by IP Western blotting. […] (D) FT-9, an Aβ42 reducing agent, can inhibit Aβ42 aggregation in vitro.
FIG. 13. Compounds that bind Aβ are GSMs in vitro and in vivo. (A) A cell-based screen of Aβ-binders identified molecules that increase Aβ42 (DAPH) or decrease Aβ42 (Bis-ANS, X-34 or chrysamine G (CG)). Data are mean±s.e.m., n=3. (B) X-34 is an Aβ42-lowering GSM. Changes in amyloid-β peptide amounts after X-34 treatment are shown. Data are presented as percentage control±s.e.m., n=3. EC50 values were calculated. […] NA, not applicable. (C) X-34 binds to APP(C100)-Flag and decreases labeling by GSM photoprobes. Biotin incorporation into APP by Fen-B and Flurbi-BpB is presented as percentage of control (peptide without X-34)±s.e.m., n=2. (D) X-34 lowers Aβ42 in Tg2576 mice after 4 h. […] Data are presented as amyloid-β percentage of control relative to vehicle±s.e.m. Animals per group (n). Asterisk, P,0.05; two asterisks, P,0.01; ANOVA with Dunnett's post-hoc analysis.
as §1

H4 APPwt cells = assay: Immunoprecipitation-mass spectrometry of media from H4 APPwt cells; format: cell-based, human
Description: FIG. 14. Amyloid binding compounds alter the cleavage of Aβ similar to other established γ-secretase modulators Immunoprecipitation-mass spectrometry studies were conducted on media from H4 APPwt cells grown in the presence of test compounds for 16 hours. Conditions were: control (DMSO, 0.5%), sulindac sulfide (SS; 25 μM), chrysamine g (CG; 25 μM), and X-34 (25 μM). SS was included as a control GSM known to reduce Aβ42 and increase Aβ38. Spectra shown are representative of two experiments with 2-3 replicates each. Identified Aβ peptides based on calculated mass (m/z) are indicated above the peaks.

APP(C100)-Flag = biological target: T1, APP(C100)-Flag (Homo sapiens, UniProt P05067); assay: Photoaffinity labelling of APP(C100)-Flag and competition; format: binding
T1 construct: APP(C100)-Flag, comprising the 99 C-terminal residues of APP plus a methionine at the N-terminus; added methionine (N)
T1 sequence (P05067 672-770 limits assumed): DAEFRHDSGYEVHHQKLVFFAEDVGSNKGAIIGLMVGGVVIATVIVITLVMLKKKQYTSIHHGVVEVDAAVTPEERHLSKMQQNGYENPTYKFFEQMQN
Description: FIG. 1. […] The top panel is for anti-biotin staining; the middle panel is for anti-FLAG staining; and the bottom panel is an overlay of anti-biotin (red and anti-Flag green, LiCor Odyssey imaging). (E) Same samples as in D, but analyzed using an ELISA. Following crosslinking, C100Flag and N100 Flag were captured using anti-FLAG plate, and biotin incorporation was measured using streptavidin-HRP. […] Fen-B (50 μM) was crosslinked to Aβ (10 μM). Biotin labeling was measured following capture with an anti-Aβ1-16 antibody and detection with streptavidin-HRP.
Photoaffinity labelling. All experiments used the following general protocol. Samples (recombinant or synthetic peptides, cell lysates and membrane preparations) were exposed in borosilicate test tubes to ultraviolet light (350 nm) in a Rayonet Photoreactor R100 (RPR-3500 lamps, Southern New England Ultra Violet Company) in a cold room (4° C.) for 30 minutes or as otherwise noted. Crosslinked samples were analyzed by ELISA for biotin incorporation, or analyzed directly by SDS-PAGE (Criterion-XT, Bio-Rad), or after precipitation with streptavidin ultralink plus beads (Pierce). After immunblotting, proteins were detected using chemiluminesence (ECL Plus, GEHealthcare) or near-infrared fluorescence (LiCor Odyssey). Full-length APP and APP CTFs (CTF83, CTF99) were detected with CT20, a rabbit polyclonal antibody against the C-terminus of APP. Biotin was detected with an affinity-purified rabbit polyclonal antibody (Bethyl). Cell-based screens for amyloid-β modulation. Human H4 neuroglioma cells (American Type Culture Collection, ATCC) expressing wild-type APP695 protein or CTF105 fused to secreted alkaline phosphatase which is efficiently processed to APP CTFs (CTF83, CTF99) and produce high levels of amyloid-β, were used for the cell-based screens as previously described. Cells were incubated for 5-6 hours in the presence of the various compounds in Opti-Mem culture medium containing 1% fetal bovine serum. Compounds were dissolved in dimethylsulphoxide (DMSO; 0.5% final concentration) and diluted 200-fold. Media was analyzed for various amyloid-β species (40, 42 and total) using ELISAs as described herein. The EC50 values for changes in amyloid-β species were calculated by fitting sigmoid dose-response curves using nonlinear regression in Prism (GraphPad) and are shown as values±s.e.m. Statistical analysis. Data are presented as either percentage control or mean±s.e.m. Results were analyzed using Prism (Graph Pad) with t-tests or one-way analysis of variance analyses (ANOVAs) with Dunnett's post-hoc correction for comparison of multiple samples to a control. Statistical significance is shown as P,0.05 (one asterisk), P,0.01 (two asterisks) or P,0.001 (three asterisks).
The ability of a purified, recombinant Flag-tagged γ-secretase substrate derived from APP (APP(C100)-Flag, comprising the 99 C-terminal residues of APP plus a methionine at the N-terminus) to be labeled by Fen-B and Flurbi-BpB was tested.

Chain of Aβ(1-42) (P05067 672-713 limits assumed): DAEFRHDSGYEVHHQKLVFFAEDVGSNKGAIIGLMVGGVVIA

O=C(O)c1cc(C=Cc2ccc(C=Cc3ccc(O)c(C(=O)O)c3)cc2)ccc1O [X-34, 1,4-bis(3-carboxy-4-hydroxyphenylethenyl)-benzene]
Kd (Aβ(1-42)): 12.1 ± 4.7 µM
Aβ40 in the brains (Tg2576 mice; 100 mg kg21, Tg2576 mice, 4 h): no effects
decrease of soluble Aβ42 in the brains (Tg2576 mice; 100 mg kg21, Tg2576 mice, 4 h): 35%
selectivity of Aβ reduction (Aβ42 vs Aβ40) (Tg2576 mice; Tg2576, oral gavage, 4 hours): selective reductions of Aβ42
shorter amyloid-β (IP-MS) (H4 APPwt cells): increased amounts of shorter amyloid-β
Aβ33 levels (IP-MS) (H4 APPwt cells; 25 μM, 16 hours): raise Aβ33 levels more effectively than SS
levels of Aβ42 (IP-MS) (H4 APPwt cells; 25 μM, 16 hours): consistently decrease levels of Aβ42
competition for binding of APP(C100)-Flag by Fen-B and Flurbi-BpB (APP(C100)-Flag): competed
